The results in this text go back to ChEMBL document CHEMBL1201862, “PubChem BioAssay data set” (2004).

Among the test systems are Malme-3M; OVCAR-4; MOLT-4; HOP-92; SK-MEL-28; TK-10; NCI-H23; SK-OV-3; SF-295; RPMI-8226; LOX IMVI; SN12C; OVCAR-8; HOP-62; SF-539; A498; HCC 2998.
Assay in all cases: NCI tumour cell line growth inhibition, 48 h

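Results reflect a 48-hour exposure of cells in 96-well plates to compound at five concentrations. GI50 = concentration required for 50% inhibition of growth.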 Activity calls are given as the source filed them. Cut-off read from the data, not from the text of the source: active = GI50 up to about 1.1 µM and inactive = higher.

Take `CC(C)(C)c1cc(C2c3cc4c(cc3OC(O)(CO)C2C(=O)O)OCO4)cc(C(C)(C)C)c1O.CC(C)(C)c1cc(C2c3cc4c(cc3OC3(O)COC(=O)C23)OCO4)cc(C(C)(C)C)c1O` (stereo not drawn): the GI50 in the assay on Malme-3M is 16.6 µM (inactive); in the assay on OVCAR-4, 11.7 µM (inactive); in the assay with MOLT-4, 3.52 µM (inactive); in the assay on HOP-92, 9.82 µM (inactive); in the assay with SK-MEL-28, 11.3 µM (inactive); in the assay with TK-10, 22.7 µM (inactive). Moreover, the GI50 is 9.55 µM (inactive) with NCI-H23; 27.3 µM (inactive) in the assay on SK-OV-3; 15.7 µM (inactive) in the assay on SF-295; 4.37 µM (inactive) in the assay on RPMI-8226; 12.2 µM (inactive) in the assay with LOX IMVI; 9.04 µM (inactive) with SN12C. Also, the results for the GI50 with OVCAR-8, in the assay with HOP-62 and in the assay on SF-539 were 10 µM (inactive), 32.2 µM (inactive) and 12.5 µM (inactive), respectively.

In the case of `COc1cc(Nc2nc3cc(C(F)(F)F)ccc3nc2C)cc(OC)c1OC`, the GI50 was 13.6 µM (inactive) in the assay on Malme-3M; 16.3 µM (inactive) in the assay on OVCAR-4; 6.95 µM (inactive) in the assay on MOLT-4; 0.246 µM (active) with HOP-92; 12.5 µM (inactive) with SK-MEL-28; 10.7 µM (inactive) in the assay on TK-10. Further, the GI50 is 10.7 µM (inactive) with NCI-H23; 14.4 µM (inactive) in the assay on SK-OV-3; 1.97 µM (inactive) in the assay on SF-295; 3.81 µM (inactive) in the assay with A498; 3.13 µM (inactive) with LOX IMVI; 10.4 µM (inactive) in the assay on SN12C. For the same molecule, the GI50 is 11 µM (inactive) with OVCAR-8, 16.7 µM (inactive) in the assay with HOP-62, 3.61 µM (inactive) with HCC 2998 and 12.2 µM (inactive) with SF-539.

`O=C1C(=O)N(C(=O)c2ccc(Cl)c(Cl)c2)c2ccc(Cl)cc21`: the GI50 with OVCAR-4 was 64.6 µM (inactive); in the assay with MOLT-4, 43.9 µM (inactive); in the assay with SK-MEL-28 it was > 100 µM (inactive); with TK-10, > 100 µM (inactive); in the assay on NCI-H23, > 100 µM (inactive); in the assay with SK-OV-3, > 100 µM (inactive). In addition, the GI50 with SF-295 is > 100 µM (inactive); in the assay on RPMI-8226, 35.6 µM (inactive); in the assay on A498, 19.4 µM (inactive); in the assay with LOX IMVI, 44.9 µM (inactive); in the assay with OVCAR-8, > 100 µM (inactive); in the assay with SF-539, > 100 µM (inactive).

`COc1cc(-c2ccccc2)c(OC)cc1CCl`: the GI50 in the assay on Malme-3M, in the assay with OVCAR-4, with MOLT-4, in the assay with TK-10, in the assay on NCI-H23 and with SK-OV-3 was > 100 µM (inactive) each time. Moreover, the GI50 in the assay on SF-295, with RPMI-8226, with A498, with SN12C, in the assay on OVCAR-8 and in the assay with HOP-62 was > 100 µM (inactive) in each case. For the same molecule, the GI50 in the assay on HCC 2998 and with SF-539 was > 100 µM (inactive) each time.

Take `COc1ccc(/C=C/C(=O)c2cc(C(=O)O)c(OC)cc2OC)cc1OC`: the GI50 in the assay with OVCAR-4, in the assay on MOLT-4, with HOP-92, in the assay on SK-MEL-28, in the assay with NCI-H23 and in the assay with SF-295 was > 100 µM (inactive) in each case. Also, the GI50 in the assay on RPMI-8226, with A498, in the assay on LOX IMVI, in the assay on SN12C, with OVCAR-8 and with HOP-62 was > 100 µM (inactive) each time. Moreover, the GI50 in the assay on SF-539 was > 100 µM (inactive).

On to `OC(CC1SCCCS1)c1ccccc1` (stereo not drawn), for which the GI50 in the assay with Malme-3M, in the assay with OVCAR-4, in the assay with MOLT-4, in the assay on TK-10, with NCI-H23 and with SK-OV-3 was > 100 µM (inactive) in each case. The GI50 in the assay with SF-295, in the assay with RPMI-8226, with A498, in the assay on SN12C, in the assay on OVCAR-8 and in the assay with HOP-62 was > 100 µM (inactive) in each case. The GI50 with HCC 2998 and with SF-539 was > 100 µM (inactive) each time.

As for `[N-]=[N+]=NC1(Cc2ccccc2)C(=O)Nc2ccccc2C1=O` (stereo not drawn), the GI50 with Malme-3M, in the assay on OVCAR-4, in the assay with MOLT-4, in the assay on HOP-92, in the assay on SK-MEL-28 and with TK-10 was > 100 µM (inactive) throughout. In addition, the GI50 in the assay on NCI-H23, in the assay on SK-OV-3, in the assay with SF-295, in the assay with A498, in the assay with LOX IMVI and in the assay with SN12C was > 100 µM (inactive) each time. Further, the GI50 with OVCAR-8, in the assay on HOP-62, with HCC 2998 and with SF-539 was > 100 µM (inactive) throughout.

As to `O=[PH](O)c1cc2ccccc2c2ccccc12`, the GI50 in the assay on OVCAR-4, in the assay on MOLT-4, in the assay with SK-MEL-28, in the assay on TK-10, in the assay on NCI-H23 and in the assay on SK-OV-3 was > 100 µM (inactive) throughout. Also, the GI50 in the assay on SF-295, in the assay on RPMI-8226, in the assay with LOX IMVI, in the assay on SN12C, in the assay with OVCAR-8 and in the assay on HOP-62 was > 100 µM (inactive) in each case. Besides, the GI50 with HCC 2998 and with SF-539 was > 100 µM (inactive) throughout.

On to `CC(=O)OC(CC1(C)C(C)CCC23COC(=O)C2=CCCC31)c1ccoc1` (stereo not drawn), for which the GI50 in the assay with Malme-3M is 21.8 µM (inactive); with OVCAR-4, 28.1 µM (inactive); in the assay with MOLT-4, 19.5 µM (inactive); in the assay on HOP-92, 26.2 µM (inactive); in the assay with SK-MEL-28 it was 17.7 µM (inactive); in the assay on NCI-H23, 19 µM (inactive). Further, the GI50 in the assay with SK-OV-3 is 40.8 µM (inactive); in the assay with SF-295, 28.7 µM (inactive); in the assay with A498, 45.3 µM (inactive); with LOX IMVI, 21.3 µM (inactive); in the assay on SN12C it was 19.9 µM (inactive); in the assay on OVCAR-8, 20.3 µM (inactive). Moreover, the results for the GI50 with HOP-62, with HCC 2998 and with SF-539 were 27.5 µM (inactive), 22.3 µM (inactive) and 25.9 µM (inactive), respectively.

Turning to `C#C[C@]1(O)CC[C@H]2[C@@H]3CCc4cc(O)ccc4[C@H]3CC[C@@]21C` [ETHINYL ESTRADIOL], the GI50 in the assay on Malme-3M was 30.5 µM (inactive); in the assay on MOLT-4, 18.6 µM (inactive); in the assay on HOP-92, 22.9 µM (inactive); in the assay on SK-MEL-28 it was 65.2 µM (inactive); in the assay with TK-10 it was 43.9 µM (inactive); in the assay with NCI-H23, 23.7 µM (inactive). The GI50 was 24.4 µM (inactive) in the assay with SK-OV-3; 19 µM (inactive) in the assay on SF-295; 20.1 µM (inactive) with A498; 25.2 µM (inactive) with LOX IMVI; 36.8 µM (inactive) in the assay on SN12C; 30.2 µM (inactive) in the assay with OVCAR-8. The GI50 in the assay on HCC 2998 is 18.3 µM (inactive); in the assay with SF-539 it was 17.6 µM (inactive).
